Measured values published in patent US20200253870A1, “A LDV LIPOSOMAL FORMULATION OF PHOTO SYSTEM-I FOR TREATMENT OF CANCER” (priority 2016, published 2020).
≈ marks a conversion by molar mass, not a printed value.

Experiments:
A375 cells [1] = test: FACS analysis for apoptosis (annexin V/PI) in A375 cells; type: cell-based, human; conditions: A375, 15.62 μg/mL
Method: Furthermore FACS analysis using apoptosis detection kit has been performed. FACS analysis, have ascertained that the LDV liposomal formulation of PSI caused apoptotic death of B16F10 and A375 cells (FIGS. 4 and 5). Inventors have performed apoptosis assay using annexin V/PI in B16F10 and A375 cell to compare the amount of apoptotic death of cancer cell due to application of 15.62 μg/mL concentration of LDV liposomal PSI and doxorubicin. Inventors have found large amount of apoptotic death of both the cancer cells (A375 and B16F10) due to LDV liposomal PSI.
Fluorescence activated cell sorting (FACS) experiment was performed for studying the type of cell death. The cell death pathway of B16F10 cells in FACS using apoptosis detection kit was studied. Cells were seeded at a density of ˜5×10^5 cells per well in a 6-well plate before 24 hours of treatment. The cells were treated with solutions of LDV liposomal formulation of PSI. After that cells were incubated for 48 hours. Cells were trypsinized and washed with PBS by help of centrifugation. […] After this another 400 μL of assay buffer was added to the cells and these total 500 μL of cell solution was analyzed by FACS. The emission of Annexin V and PI was detected in the FITC and PI channels of BD LSRFORTESA flow cytometer using emission filters at 530 and 610 nm respectively. […] Data was analyzed using FACS DIVA software. […]

[2] = MTT cell viability assay in WI38 normal cells; type: cell-based; conditions: human, WI38, 15.62 μg/mL, Table 5 comparison
Method: B16F10 and WI38 cells were seeded in a 96-well plate at density of 10000 cells per well before 24 h of treatment. Cells were treated with LDV liposomal PSI and normal liposomal PSI separately in complete media for 24 h. After 24 h, MTT assay was performed. […] In case of normal liposomal PSI, inventors have found similar amount of cell viability for both B16F10 and WI38 cells.
B16F10 and A375 cells were treated with the LDV liposomal formulation of PSI and cellular viability was checked using MTT assay. It is a colorimetric assay where MTT (Methyl thiazolyl diphenyl-tetrazolium bromide), a yellow tetrazole compound, is reduced to purple formazan by cellular reductase enzymes of live cells. Dead cells cannot do this type of reduction and are not able to develop the purple colour. Therefore an idea about the amount of cells lived after the treatment of LDV liposomal formulation of PSI with respect to those cells (control) which are not treated with the peptide. The live cells are called as viable cells and it is denoted as % viability in the Y-axis. On the X-axis four different concentrations of the said formulation was plotted. The absorbance at 550 nm was measured and the % viability was calculated.
% Viability=[(A550Treated Cells−A550 Backgrounds)/(A550Untreated Cells−A550 Backgrounds)]*100.

A375 cells [3] = test: cells; type: cell-based, human; conditions: A-375, MTT
Method: B16F10 and A375 cells were treated with the LDV liposomal formulation of PSI and cellular viability was checked using MTT assay. […] Therefore an idea about the amount of cells lived after the treatment of LDV liposomal formulation of PSI with respect to those cells (control) which are not treated with the peptide. […] The absorbance at 550 nm was measured and the % viability was calculated.
(§1) Cells were seeded at a density of 10000 cells per well in 96-well plate before 24 hours of treatment. Cells were treated with different concentrations of LDV liposomal formulation of PSI. After that cells were incubated for 48 hours in complete media. MTT solution (5 mg/mL) was prepared in PBS. 50 μL of MTT solution was added into each well and incubated at 37° C. for 4 hours. Purple colored formazan was dissolved in 1:1 (v/v) DMSO/MeOH and absorbances of the wells were measured at 550 nm by micro-plate ELISA reader. The % viability from this absorbance values was calculated.
A375 cells were seeded at a density of 10000 cells per well in 96-well plate before 24 hours of treatment. Cells were treated with LDV-liposome-PSI and doxorubicin for 24 hours. MTT assay as described was performed and IC50 value was calculated using CompuSyn software.

B16F10 cells [4] = test: FACS analysis for apoptosis (annexin V/PI) in B16F10 cells; type: cell-based, mouse; conditions: B16F10, 15.62 μg/mL, 48 hours
Method: Fluorescence activated cell sorting (FACS) experiment was performed for studying the type of cell death. The cell death pathway of B16F10 cells in FACS using apoptosis detection kit was studied. Cells were seeded at a density of ˜5×10^5 cells per well in a 6-well plate before 24 hours of treatment. The cells were treated with solutions of LDV liposomal formulation of PSI. After that cells were incubated for 48 hours. Cells were trypsinized and washed with PBS by help of centrifugation. Cells were incubated in dark at 37° C. for 30 minutes with a 100 μL solution of assay buffer containing 2.5 μL of Propidium iodide (PI) and 2.5 μL of annexin V. All these reagents were supplied along with the apoptosis detection kit (Santa Cruz Biotechnology). The stock concentration of Propidium iodide and annexin V was 50 μg/mL and 200 μg/mL respectively. After this another 400 μL of assay buffer was added to the cells and these total 500 μL of cell solution was analyzed by FACS. The emission of Annexin V and PI was detected in the FITC and PI channels of BD LSRFORTESA flow cytometer using emission filters at 530 and 610 nm respectively. In the represented data, cells in the Q1, Q2 and Q4 quadrants are regarded as necrotic, late apoptotic and early apoptotic cells respectively. Cells in the Q3 quadrant are regarded as normal cells or healthy cells. Data was analyzed using FACS DIVA software. […]

B16F10 cells [5] = test: MTT cell viability assay in B16F10 cells; type: cell-based; conditions: Mus musculus, B16-F10, B16F10, 15.62 μg/mL, Table 5 comparison, 24 h
Method: B16F10 and A375 cells were treated with the LDV liposomal formulation of PSI and cellular viability was checked using MTT assay. It is a colorimetric assay where MTT (Methyl thiazolyl diphenyl-tetrazolium bromide), a yellow tetrazole compound, is reduced to purple formazan by cellular reductase enzymes of live cells. Dead cells cannot do this type of reduction and are not able to develop the purple colour. […] The live cells are called as viable cells and it is denoted as % viability in the Y-axis. On the X-axis four different concentrations of the said formulation was plotted. The absorbance at 550 nm was measured and the % viability was calculated.
as §1

In the case of `COc1cccc2c1C(=O)c1c(O)c3c(c(O)c1C2=O)C[C@@](O)(C(=O)CO)C[C@@H]3O[C@H]1C[C@H](N)[C@H](O)[C@H](C)O1` [Doxorubicin], the “Amount of Apoptotic death of cancer cell (%)” value (A375 cells [1]) is reported as 100%, the viability at 24 h, 15.62 μg/mL [2] is reported as 65.2% and the IC50 (A375 cells [3]; A375, Melanoma (human), CompuSyn software) is reported as 10.2 µg/mL (≈ 18.7 µM). It also gave a viability at 3.12 µg/mL (A375 cells [3]; Homo sapiens, A375, 3.12 μg/mL) of 94%, a viability at 6.25 µg/mL (A375 cells [3]; Homo sapiens, A375, 6.25 μg/mL) of 59.2% and a viability at 12.5 µg/mL (A375 cells [3]; Homo sapiens, A375, 12.5 μg/mL) of 31.5%. The viability at 25 µg/mL (A375 cells [3]; Homo sapiens, A375, 25 μg/mL) was 11.7%, the viability at 50 µg/mL (A375 cells [3]; Homo sapiens, A375, 50 μg/mL) was 4.9% and the viability at 100 µg/mL (A375 cells [3]; Homo sapiens, A375, 100 μg/mL) was 6.09%. The “Amount of Apoptotic death of cancer cell (%)” value (B16F10 cells [4]) was 99.9% and the viability at 15.62 µg/mL (B16F10 cells [5]) was 19.9%.
